Assay results: patent US20140058103A1, “Inhibitors of PI3K-Delta and Methods of Their Use and Manufacture” (Exelixis, Inc., priority 2010, published 2014)
pIC50: −log10 of the molar value.

Molecular target: PI3K delta (Homo sapiens, UniProt O00329)
Experiment: Luciferase-coupled chemiluminescence kinase assay (ATP consumption, KinaseGlo)
Assay type: biochemical
Method in brief: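 Compound, kinase and ATP (≤ KM) reacted 2 h at ambient temperature, then remaining ATP quantified with luciferase-luciferin (KinaseGlo) luminescence as percent consumed.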

PI3K delta, sequence (O00329 whole entry): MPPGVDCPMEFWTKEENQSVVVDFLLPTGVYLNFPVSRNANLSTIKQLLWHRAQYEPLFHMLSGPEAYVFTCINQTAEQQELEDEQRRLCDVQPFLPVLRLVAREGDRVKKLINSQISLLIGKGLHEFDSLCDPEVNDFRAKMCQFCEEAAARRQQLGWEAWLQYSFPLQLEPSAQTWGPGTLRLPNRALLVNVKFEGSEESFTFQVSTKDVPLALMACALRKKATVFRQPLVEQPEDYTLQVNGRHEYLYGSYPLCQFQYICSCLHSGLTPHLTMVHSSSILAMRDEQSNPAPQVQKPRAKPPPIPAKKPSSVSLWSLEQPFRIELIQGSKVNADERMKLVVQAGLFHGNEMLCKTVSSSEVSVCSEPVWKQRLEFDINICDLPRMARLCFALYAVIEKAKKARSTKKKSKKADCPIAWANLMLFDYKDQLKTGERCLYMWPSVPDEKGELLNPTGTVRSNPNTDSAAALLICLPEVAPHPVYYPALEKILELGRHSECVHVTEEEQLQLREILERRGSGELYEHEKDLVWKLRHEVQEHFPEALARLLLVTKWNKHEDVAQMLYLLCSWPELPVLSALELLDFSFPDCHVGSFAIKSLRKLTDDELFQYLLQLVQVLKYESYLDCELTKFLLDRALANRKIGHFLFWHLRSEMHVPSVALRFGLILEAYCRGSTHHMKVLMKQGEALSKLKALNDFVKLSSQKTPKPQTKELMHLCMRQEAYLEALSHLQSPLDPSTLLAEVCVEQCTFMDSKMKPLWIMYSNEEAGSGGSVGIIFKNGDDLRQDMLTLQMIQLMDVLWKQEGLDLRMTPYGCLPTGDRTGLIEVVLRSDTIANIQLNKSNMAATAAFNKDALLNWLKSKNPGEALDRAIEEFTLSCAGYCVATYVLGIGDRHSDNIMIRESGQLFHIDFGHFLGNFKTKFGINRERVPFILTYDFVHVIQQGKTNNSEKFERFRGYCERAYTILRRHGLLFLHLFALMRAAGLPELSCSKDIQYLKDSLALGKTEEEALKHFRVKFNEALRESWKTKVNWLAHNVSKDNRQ
PI3K delta, sequence (P27986 whole entry partner): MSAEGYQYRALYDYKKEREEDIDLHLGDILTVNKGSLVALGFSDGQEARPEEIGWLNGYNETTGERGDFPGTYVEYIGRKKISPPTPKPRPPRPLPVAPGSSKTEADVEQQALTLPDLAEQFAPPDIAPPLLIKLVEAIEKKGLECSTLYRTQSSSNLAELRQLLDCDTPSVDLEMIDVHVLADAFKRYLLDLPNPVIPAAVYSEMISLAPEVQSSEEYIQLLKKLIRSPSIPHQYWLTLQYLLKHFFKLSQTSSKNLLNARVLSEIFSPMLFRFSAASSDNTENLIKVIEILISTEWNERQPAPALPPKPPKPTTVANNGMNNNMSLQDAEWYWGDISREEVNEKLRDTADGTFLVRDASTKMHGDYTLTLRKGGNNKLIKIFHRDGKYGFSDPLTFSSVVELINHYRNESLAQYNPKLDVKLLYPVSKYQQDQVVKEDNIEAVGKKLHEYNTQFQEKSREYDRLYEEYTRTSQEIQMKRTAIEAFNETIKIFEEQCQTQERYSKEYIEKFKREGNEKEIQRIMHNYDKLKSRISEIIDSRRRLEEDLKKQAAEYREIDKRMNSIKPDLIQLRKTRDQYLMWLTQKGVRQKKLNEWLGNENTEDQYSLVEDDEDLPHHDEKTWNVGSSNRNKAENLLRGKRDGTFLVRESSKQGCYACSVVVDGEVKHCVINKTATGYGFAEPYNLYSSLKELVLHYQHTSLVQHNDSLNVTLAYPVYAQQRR

Row | SMILES | pIC50
1 | Cn1c(C(=O)NCC2CC2)nc2c(N3CCC4(CC3)OCc3ccccc34)ncnc21 [Compound 132, N-(cyclopropylmethyl)-9-methyl-6-(1′H,3H-spiro[2-benzofuran-1,4′-piperidin]-1′-yl)-9H-purine-8-carboxamide] | 5.82 to 6.30
2 | Cn1c(C(=O)NCC2CC2)nc2c(N3CCC(N4c5ccccc5NS4(=O)=O)CC3)ncnc21 [Compound 133, N-(cyclopropylmethyl)-6-[4-(2,2-dioxido-2,1,3-benzothiadiazol-1(3H)-yl)piperidin-1-yl]-9-methyl-9H-purine-8-carboxamide] | 6.60 to 7.30
3 | Cn1c(C(F)(F)F)nc2c(N3CCC(n4c(=O)[nH]c5ccccc54)CC3)ncnc21 [Compound 134, 1-{1-[9-Methyl-8-(trifluoromethyl)-9H-purin-6-yl]piperidin-4-yl}-1,3-dihydro-2H-benzimidazol-2-one] | 6.30 to 6.60
4 | Cn1c(-c2cnco2)nc2c(N3CCC(n4c(=O)[nH]c5ccccc54)CC3)ncnc21 [Compound 135, 1-{1-[9-methyl-8-(1,3-oxazol-5-yl)-9H-purin-6-yl]piperidin-4-yl}-1,3-dihydro-2H-benzimidazol-2-one] | 6.60 to 7.30
5 | CC(C)c1ccc2c(c1)C1(CCN(c3ncnc4c3nc(C(=O)NCC3CC3)n4C)CC1)C(=O)N2 [Compound 136, N-(cyclopropylmethyl)-9-methyl-6-[5-(1-methylethyl)-2-oxo-1,2-dihydro-1′H-spiro[indole-3,4′-piperidin]-1′-yl]-9H-purine-8-carboxamide] | 5.82 to 6.30
6 | Cn1c(C(=O)NCC2CC2)nc2c(N3CC(n4c(=O)[nH]c5ccccc54)C3)ncnc21 [Compound 137, N-(cyclopropylmethyl)-9-methyl-6-[3-(2-oxo-2,3-dihydro-1H-benzimidazol-1-yl)azetidin-1-yl]-9H-purine-8-carboxamide] | 6.60 to 7.30
7 | Cn1c(C(=O)NCC2CC2)nc2c(N3CCC4(CC3)OC(=O)c3ccccc34)ncnc21 [Compound 138, N-(cyclopropylmethyl)-9-methyl-6-(3-oxo-1′H,3H-spiro[2-benzofuran-1,4′-piperidin]-1′-yl)-9H-purine-8-carboxamide] | 5.82 to 6.30
8 | C#CCNC(=O)c1nc2c(N3CCC4(CC3)C(=O)Nc3ccccc34)ncnc2n1C [Compound 140, 9-methyl-6-(2-oxo-1,2-dihydro-1′H-spiro[indole-3,4′-piperidin]-1′-yl)-N-prop-2-yn-1-yl-9H-purine-8-carboxamide] | 6.60 to 7.30
9 | CN1C(=O)C2(CCN(c3ncnc4c3nc(C(=O)NCC3CC3)n4C)CC2)c2ccccc21 [Compound 141, N-(cyclopropylmethyl)-9-methyl-6-(1-methyl-2-oxo-1,2-dihydro-1′H-spiro[indole-3,4′-piperidin]-1′-yl)-9H-purine-8-carboxamide] | 5.82 to 6.30
10 | Cn1c(C(=O)NCC2CC2)nc2c(N3CCC4(CC3)NC(=O)c3ccccc34)ncnc21 [Compound 142, N-(cyclopropylmethyl)-9-methyl-6-(3-oxo-2,3-dihydro-1′H-spiro[isoindole-1,4′-piperidir]-1′-yl)-9H-purine-8-carboxamide] | 5.82 to 6.30
11 | Cn1c(C(=O)NCC2CC2)nc2c(N3CCC(n4nnc5ccccc54)CC3)ncnc21 [Compound 143, 6-[4-(1H-1,2,3-benzotriazol-1-yl)piperidin-1-yl]-N-(cyclopropylmethyl)-9-methyl-9H-purine-8-carboxamide] | 5.82 to 6.30
12 | Cn1c(C(=O)NCC2CC2)nc2c(N3CC(n4c(=O)[nH]c5cc(C(F)(F)F)ccc54)C3)ncnc21 [Compound 145, N-(cyclopropylmethyl)-9-methyl-6-{3-[2-oxo-5-(trifluoromethyl)-2,3-dihydro-1H-benzimidazol-1-yl]azetidin-1-yl}-9H-purine-8-carboxamide] | 6.30 to 6.60
13 | CCn1cc(-c2nc3c(N4CCC(n5c(=O)[nH]c6ccccc65)CC4)ncnc3n2C)cn1 [Compound 146, 1-{1-[8-(1-Ethyl-1H-pyrazol-4-yl)-9-methyl-9H-purin-6-yl]piperidin-4-yl}-1,3-dihydro-2H-benzimidazol-2-one] | > 7.30
14 | Cn1cc(-c2nc3c(N4CCC(n5c(=O)[nH]c6ccccc65)CC4)ncnc3n2C)cn1 [Compound 149, 1-{1-[9-Methyl-8-(1-methyl-1H-pyrazol-4-yl)-9H-purin-6-yl]piperidin-4-yl}-1,3-dihydro-2H-benzimidazol-2-one] | > 7.30
15 | CCn1c(C(=O)N[C@H]2CC[C@H](O)CC2)nc2c(N3CCC(n4c(=O)[nH]c5ccccc54)CC3)ncnc21 [Compound 154, 9-ethyl-N-(trans-4-hydroxycyclohexyl)-6-[4-(2-oxo-2,3-dihydro-1H-benzimidazol-1-yl)piperidin-1-yl]-9H-purine-8-carboxamide] | > 7.30
16 | CCn1c(C(=O)NCC2CCOCC2)nc2c(N3CCC(n4c(=O)[nH]c5ccccc54)CC3)ncnc21 [Compound 156, 9-ethyl-6-[4-(2-oxo-2,3-dihydro-1H-benzimidazol-1-yl)piperidin-1-yl]-N-(tetrahydro-2H-pyran-4-ylmethyl)-9H-purine-8-carboxamide] | > 7.30
17 | CCn1c(C(=O)NCC(C)C)nc2c(N3CCC(n4c(=O)[nH]c5ccccc54)CC3)ncnc21 [Compound 158, 9-ethyl-N-(2-methylpropyl)-6-[4-(2-oxo-2,3-dihydro-1H-benzimidazol-1-yl)piperidin-1-yl]-9H-purine-8-carboxamide] | > 7.30
18 | CCn1c(C(=O)NCC2CC2)nc2c(N3CCC4(CC3)C(=O)Nc3ccccc34)ncnc21 [Compound 163, N-(cyclopropylmethyl)-9-ethyl-6-(2-oxo-1,2-dihydro-1′H-spiro[indole-3,4′-piperidin]-1′-yl)-9H-purine-8-carboxamide] | > 7.30
19 | CCn1c(C(=O)NCC(C)C)nc2c(N3CCC4(CC3)C(=O)Nc3ccccc34)ncnc21 [Compound 164, 9-ethyl-N-(2-methylpropyl)-6-(2-oxo-1,2-dihydro-1′H-spiro[indole-3,4′-piperidin]-1′-yl)-9H-purine-8-carboxamide] | > 7.30

Other lines, results leading:

Row | pIC50 | SMILES
20 | 6.60 to 7.30 | C#CCNC(=O)c1nc2c(N3CCC(n4c(=O)[nH]c5ccccc54)CC3)ncnc2n1C [Compound 139, 9-methyl-6-[4-(2-oxo-2,3-dihydro-1H-benzimidazol-1-yl)piperidin-1-yl]-N-prop-2-yn-1-yl-9H-purine-8-carboxamide]
21 | 5.82 to 6.30 | C/C=C/c1nc2c(N3CCC(n4c(=O)[nH]c5ccccc54)CC3)ncnc2n1C [Compound 144, 1-(1-{9-methyl-8-[(1E)-prop-1-en-1-yl]-9H-purin-6-yl}piperidin-4-yl)-1,3-dihydro-2H-benzimidazol-2-one]
22 | > 7.30 | CCCn1cc(-c2nc3c(N4CCC(n5c(=O)[nH]c6ccccc65)CC4)ncnc3n2C)cn1 [Compound 147, 1-{1-[9-methyl-8-(1-propyl-1H-pyrazol-4-yl)-9H-purin-6-yl]piperidin-4-yl}-1,3-dihydro-2H-benzimidazol-2-one]
23 | > 7.30 | CC(C)Cn1cc(-c2nc3c(N4CCC(n5c(=O)[nH]c6ccccc65)CC4)ncnc3n2C)cn1 [Compound 148, 1-(1-{9-methyl-8-[1-(2-methylpropyl)-1H-pyrazol-4-yl]-9H-purin-6-yl}piperidin-4-yl)-1,3-dihydro-2H-benzimidazol-2-one]
24 | > 7.30 | CC(C)n1cc(-c2nc3c(N4CCC(n5c(=O)[nH]c6ccccc65)CC4)ncnc3n2C)cn1 [Compound 152, 1-(1-{9-methyl-8-[1-(1-methylethyl)-1H-pyrazol-4-yl]-9H-purin-6-yl}piperidin-4-yl)-1,3-dihydro-2H-benzimidazol-2-one]
25 | 6.60 to 7.30 | Cn1c(-n2cnc(Br)c2)nc2c(N3CCC(n4c(=O)[nH]c5ccccc54)CC3)ncnc21 [Compound 153, 1-{1-[8-(4-bromo-1H-imidazol-1-yl)-9-methyl-9H-purin-6-yl]piperidin-4-yl}-1,3-dihydro-2H-benzimidazol-2-one]
26 | > 7.30 | CCn1c(C(=O)NCC(F)(F)F)nc2c(N3CCC(n4c(=O)[nH]c5ccccc54)CC3)ncnc21 [Compound 155, 9-ethyl-6-[4-(2-oxo-2,3-dihydro-1H-benzimidazol-1-yl)piperidin-1-yl]-N-(2,2,2-trifluoroethyl)-9H-purine-8-carboxamide]
27 | 6.60 to 7.30 | CCCCNC(=O)c1nc2c(N3CCC(n4c(=O)[nH]c5ccccc54)CC3)ncnc2n1CC [Compound 157, N-butyl-9-ethyl-6-[4-(2-oxo-2,3-dihydro-1H-benzimidazol-1-yl)piperidin-1-yl]-9H-purine-8-carboxamide]
28 | > 7.30 | CCn1c(C(=O)N[C@H]2CC[C@H](O)CC2)nc2c(N3CCC4(CC3)C(=O)Nc3ccccc34)ncnc21 [Compound 159, 9-ethyl-N-(trans-4-hydroxycyclohexyl)-6-(2-oxo-1,2-dihydro-1′H-spiro[indole-3,4′-piperidin]-1′-yl)-9H-purine-8-carboxamide]
29 | > 7.30 | CCn1c(C(=O)NCC(F)(F)F)nc2c(N3CCC4(CC3)C(=O)Nc3ccccc34)ncnc21 [Compound 160, 9-ethyl-6-(2-oxo-1,2-dihydro-1′H-spiro[indole-3,4′-piperidin]-1′-yl)-N-(2,2,2-trifluoroethyl)-9H-purine-8-carboxamide]
30 | > 7.30 | CCn1c(C(=O)NCC2CCOCC2)nc2c(N3CCC4(CC3)C(=O)Nc3ccccc34)ncnc21 [Compound 161, 9-ethyl-6-(2-oxo-1,2-dihydro-1′H-spiro[indole-3,4′-piperidin]-1′-yl)-N-(tetrahydro-2H-pyran-4-ylmethyl)-9H-purine-8-carboxamide]
31 | > 7.30 | CCCCNC(=O)c1nc2c(N3CCC4(CC3)C(=O)Nc3ccccc34)ncnc2n1CC [Compound 162, N-butyl-9-ethyl-6-(2-oxo-1,2-dihydro-1′H-spiro[indole-3,4′-piperidin]-1′-yl)-9H-purine-8-carboxamide]
32 | 6.60 to 7.30 | Cn1c(-n2cnc(C(F)(F)F)c2)nc2c(N3CCC(n4c(=O)[nH]c5ccccc54)CC3)ncnc21 [Compound 165, 1-(1-{9-methyl-8-[4-(trifluoromethyl)-1H-imidazol-1-yl]-9H-purin-6-yl}piperidin-4-yl)-1,3-dihydro-2H-benzimidazol-2-one]
